This series in a line: Evaluation of pharmacokinetic parameters for metronidazole following topical administration of metronidazole gel USP, 1% to the face of 13 patients with moderate to severe rosacea. Particulars: human, in vivo, topical or ocular, dosed compound id 31, dosed compound name METRONIDAZOLE, gender male and female, regimen Once daily, study dosing duration 7 days, tissue Plasma. Also on record: dose 1 g, route topical. The class given is ADME, organism-based.

Our source for the Cmax, AUC and Tmax values is ChEMBL document CHEMBL3832081, “DailyMed|setid=caaf1b7f-eaab-4fb6-a955-b7d881038fef | METRONIDAZOLE - metronidazole gel|Sandoz Inc”.

In general, Cmax refers to the highest concentration seen after dosing. As a reminder, the AUC is concentration integrated over time. Broadly, the Tmax is the time at which the peak concentration occurs.

As for `Cc1ncc([N+](=O)[O-])n1CCO` [METRONIDAZOLE], the highest concentration (Cmax) (1 g) is 32 ng/mL. Further, for the setting “1 g, read-out: AUC(0-24)”, the area under the curve (AUC) amounted to 595 ng·h/mL. The Tmax (dose 1 g, route topical) fell in the range of 6 to 10 h.
